Measured values from BindingDB's records for doi:10.1016/j.bmc.2010.11.049 (Bryn Mawr College, 2011).

Assay: Inhibition of HIV1 YU2 gp120 binding to CD4 expressing Cf2Th-CD4/CCR5 cells assessed as inhibition of viral infection after 48 hrs

## O=C(Nc1ccc(Cl)c(F)c1)C(=O)NC1CCc2[nH]ncc2C1 (centres undefined) [N1-(4-chloro-3-fluorophenyl)-N2-(4,5,6,7-tetrahydro-1H-indazol-5-yl)oxalamide]
  IC50: > 100 µM

## CN1CCC(CNC(=O)C(=O)Nc2ccc(Cl)c(F)c2)(N(C)C)CC1 [N1-(4-chloro-3-fluorophenyl)-N2-((4-(dimethylamino)-1-methylpiperidin-4-yl)methyl)oxalamide]
  IC50: > 100 µM

## Cc1n[nH]c(C)c1CNC(=O)C(=O)Nc1ccc(Cl)c(F)c1 [N1-(4-chloro-3-fluorophenyl)-N2-((3,5-dimethyl-1H-pyrazol-4-yl)methyl)oxalamide]
  IC50: 64.5 µM

## COc1cccc(CNC(=O)C(=O)Nc2ccc(Cl)cc2)c1 [N1-(4-chlorophenyl)-N2-(3-methoxybenzyl)oxalamide]
  IC50: > 100 µM

## CC(C)c1cccc(NC(=O)C(=O)NC2CC(C)(C)NC(C)(C)C2)c1 [N1-(3-isopropylphenyl)-N2-(2,2,6,6-tetramethylpiperidin-4-yl)oxalamide]
  IC50: > 100 µM

## NC(=O)C1CCN(CCC(=O)Nc2ccc(Br)cc2)CC1 [cis-1-(3-(4-bromophenylamino)-3-oxopropyl)-4-carbamoylpiperidinium]
  IC50: > 100 µM

## CC(C)N1CCC(NC(=O)C(=O)Nc2ccc(Cl)c(F)c2)CC1 [N1-(4-chloro-3-fluorophenyl)-N2-(1-isopropylpiperidin-4-yl)oxalamide]
  IC50: > 100 µM

## CC1(C)CC(NC(=O)C(=O)Nc2ccc(Cl)c(OCc3ccccc3)c2)CC(C)(C)N1 [N1-(3-(benzyloxy)-4-chlorophenyl)-N2-(2,2,6,6-tetramethylpiperidin-4-yl)oxalamide]
  IC50: > 100 µM

## CC1(C)CC(NC(=O)C(=O)Nc2cccc(OCc3ccccc3)c2)CC(C)(C)N1 [N1-(3-(benzyloxy)phenyl)-N2-(2,2,6,6-tetramethylpiperidin-4-yl)oxalamide]
  IC50: > 100 µM

## CC1(C)CC(NC(=O)CCC(=O)Nc2ccc(Br)cc2)CC(C)(C)N1 [N1-(4-bromophenyl)-N4-(2,2,6,6-tetramethylpiperidin-4-yl)succinamide]
  IC50: > 100 µM

## O=C(NCc1ccccc1CN1CCOCC1)C(=O)Nc1ccc(Cl)c(F)c1 [N1-(4-chloro-3-fluorophenyl)-N2-(2-(morpholinomethyl)benzyl)oxalamide]
  IC50: 20.5 µM

## CC1(C)OC(=O)N(CCC(=O)Nc2ccc(Cl)cc2)[C@@]1(C)O [(S)-N-(4-chlorophenyl)-3-(4-hydroxy-4,5,5-trimethyl-2-oxooxazolidin-3-yl)propanamide]
  IC50: > 100 µM

## CCN(CC)C(CNC(=O)C(=O)Nc1ccc(Cl)c(F)c1)CC(C)C (centres undefined) [N1-(4-chloro-3-fluorophenyl)-N2-(2-(diethylamino)-4-methylpentyl)oxalamide]
  IC50: > 100 µM

## O=C(NC[C@@]12CCC[C@@H]1CNC2)C(=O)Nc1ccc(Cl)c(F)c1 [N1-(4-chloro-3-fluorophenyl)-N2-(((3aS,6aS)-octahydrocyclopenta[c]pyrrol-3a-yl)methyl)oxalamide]
  IC50: 68.3 µM

## O=C(Nc1ccnc(=O)[nH]1)c1sc2cc(Cl)ccc2c1Cl [3,6-dichloro-N-(2-oxo-1,2-dihydropyrimidin-4-yl)benzo[b]thiophene-2-carboxamide]
  IC50: > 100 µM

## CC(C)COc1cc(Cl)ccc1NC(=O)C(=O)NC1CC(C)(C)NC(C)(C)C1 [N1-(4-chloro-2-isobutoxyphenyl)-N2-(2,2,6,6-tetramethylpiperidin-4-yl)oxalamide]
  IC50: > 100 µM

## CC1(C)Cc2c(sc(NC(=O)C(=O)Nc3ccc(Cl)c(F)c3)c2C#N)C(C)(C)N1 [N1-(4-chloro-3-fluorophenyl)-N2-(3-cyano-5,5,7,7-tetramethyl-4,5,6,7-tetrahydrothieno[2,3-c]pyridin-2-yl)oxalamide]
  IC50: > 100 µM

## CNS(=O)(=O)Cc1ccc(CNC(=O)C(=O)Nc2ccc(Cl)c(F)c2)cc1 [N1-(4-chloro-3-fluorophenyl)-N2-(4-(N-methylsulfamoylmethyl)benzyl)oxalamide]
  IC50: > 100 µM

## O=C(NCc1ccco1)C(=O)Nc1ccc(Br)cc1 [N1-(4-bromophenyl)-N2-(furan-2-ylmethyl)oxalamide]
  IC50: > 100 µM
